What is called IC50 is the concentration needed to halve the response being measured. A higher IC50 goes with a need for much substance.

This note sets out measurements from ChEMBL document CHEMBL4610118 (J Med Chem, 2020).

Structures are written as SMILES.

The target of the experiment is CDK7/Cyclin H/MNAT1 (Homo sapiens, UniProt P50613).
Sequence of CDK7/Cyclin H/MNAT1 (P51946 whole entry): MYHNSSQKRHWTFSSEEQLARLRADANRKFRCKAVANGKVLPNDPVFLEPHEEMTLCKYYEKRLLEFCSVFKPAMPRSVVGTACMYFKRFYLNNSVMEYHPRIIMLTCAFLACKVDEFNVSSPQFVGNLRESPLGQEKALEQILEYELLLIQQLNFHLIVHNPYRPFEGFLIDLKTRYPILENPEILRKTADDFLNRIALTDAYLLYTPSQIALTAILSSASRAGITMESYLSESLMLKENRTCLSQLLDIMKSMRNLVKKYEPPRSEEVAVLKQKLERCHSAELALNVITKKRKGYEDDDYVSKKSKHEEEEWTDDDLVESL
Sequence of CDK7/Cyclin H/MNAT1 (P50613 whole entry): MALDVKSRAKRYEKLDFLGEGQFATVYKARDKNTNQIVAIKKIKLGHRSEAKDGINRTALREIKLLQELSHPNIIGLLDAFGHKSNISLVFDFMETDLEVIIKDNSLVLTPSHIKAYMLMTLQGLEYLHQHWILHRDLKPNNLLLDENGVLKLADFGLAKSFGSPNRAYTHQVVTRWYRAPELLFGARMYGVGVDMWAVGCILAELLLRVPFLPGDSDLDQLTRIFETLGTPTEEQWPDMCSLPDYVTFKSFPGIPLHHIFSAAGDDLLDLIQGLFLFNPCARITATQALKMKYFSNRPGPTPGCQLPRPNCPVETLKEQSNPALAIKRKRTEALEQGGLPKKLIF
Sequence of CDK7/Cyclin H/MNAT1 (P51948 whole entry, further chain): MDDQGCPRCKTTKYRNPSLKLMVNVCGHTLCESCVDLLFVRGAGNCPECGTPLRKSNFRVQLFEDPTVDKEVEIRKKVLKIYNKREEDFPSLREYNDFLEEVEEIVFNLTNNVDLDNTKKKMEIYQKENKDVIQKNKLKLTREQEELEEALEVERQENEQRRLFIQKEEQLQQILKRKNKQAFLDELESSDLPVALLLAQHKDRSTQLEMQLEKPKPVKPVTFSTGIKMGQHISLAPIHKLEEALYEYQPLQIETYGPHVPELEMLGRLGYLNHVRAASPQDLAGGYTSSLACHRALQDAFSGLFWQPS
Description: Inhibition of recombinant human full-length His-tagged CDK7/Cyclin H/MNAT1 expressed in baculovirus infection system using Cdk7/9tide as substrate measured after 1 hr by Alexa Fluor 647 ADP Tracer-based Adapta assay
In turn, `C=CC(=O)Nc1ccc(C(=O)N2CCC[C@@H](Nc3ncc(SCc4ncc(C(C)(C)C)o4)s3)C2)cc1C(F)(F)F` gave a concentration for half-maximal inhibition (IC50) of 3.49 µM.
The value for `C=CC(=O)Nc1ccc(C(=O)N2CC(Nc3ncc(SCc4ncc(C(C)(C)C)o4)s3)CC(F)(F)C2)cc1` (stereo not given) was 9.6 µM; that for `C=CC(=O)Nc1ccc(C(=O)N2CCC[C@@H](Nc3nc(C)c(SCc4ncc(C(C)(C)C)o4)s3)C2)cc1` was > 10 µM.
The same measure for `C=CC(=O)Nc1ccc(C(=O)N2CCC[C@@H](Nc3ncc(SCc4ccncc4)s3)C2)cc1`: > 10 µM.
The value for `C=CC(=O)Nc1ccc(C(=O)N2CCC[C@@H](Nc3ncc(SCc4ncc(C(C)(C)C)o4)s3)[C@H]2C)cc1` was 7.79 µM; that for `C=CC(=O)Nc1ccc(C(=O)N2CCC[C@@H](Nc3ncc(SCc4ncc(C(C)(C)C)o4)s3)C2)cc1F` was 5.54 µM.
`C=CC(=O)Nc1ccc(C(=O)N2C[C@H](Nc3ncc(SCc4ncc(C(C)(C)C)o4)s3)CC[C@@H]2C)cc1` came in with a half-maximal inhibitory concentration (IC50) of 0.609 µM.
The value for `C=CC(=O)Nc1ccc(C(=O)N2CCC[C@@H](Nc3ncc(SCc4ncc(C(C)(C)C)o4)s3)C2)nc1` was 3.89 µM; that for `C=CC(=O)Nc1ccc(C(=O)N2CCC[C@@H](Nc3ncc(Cl)c(SCc4ncc(C(C)(C)C)o4)n3)C2)cc1` was 5.12 µM.
The value for `C=CC(=O)Nc1ccc(C(=O)N2CCC[C@@H](Nc3ncc([S+]([O-])Cc4ncc(C(C)(C)C)o4)s3)C2)cc1` (stereo not given in full) was > 10 µM.
